In ChEMBL document CHEMBL5038646, “Structure-Activity Relationship Studies of New Sinapic Acid Phenethyl Ester Analogues Targeting the Biosynthesis of 5-Lipoxygenase Products: The Role of Phenolic Moiety, Ester Function, and Bioisosterism” (J Nat Prod, 2022):
Calls of active or inactive are those of the source. No cut-off for these calls is given here.

Columns and labels:
[1] = target: T1, Polyunsaturated fatty acid 5-lipoxygenase (Homo sapiens, UniProt P09917); experiment: Inhibition of 5-LO in thapsigargin stimulated human PMNL cells assessed as reduction in 5-LO product level preincubated for 5 mins followed by thapsigargin addition and measured after 15 mins by RP-HPLC analysis; assay type: cell-based
T1 sequence (P09917 whole entry): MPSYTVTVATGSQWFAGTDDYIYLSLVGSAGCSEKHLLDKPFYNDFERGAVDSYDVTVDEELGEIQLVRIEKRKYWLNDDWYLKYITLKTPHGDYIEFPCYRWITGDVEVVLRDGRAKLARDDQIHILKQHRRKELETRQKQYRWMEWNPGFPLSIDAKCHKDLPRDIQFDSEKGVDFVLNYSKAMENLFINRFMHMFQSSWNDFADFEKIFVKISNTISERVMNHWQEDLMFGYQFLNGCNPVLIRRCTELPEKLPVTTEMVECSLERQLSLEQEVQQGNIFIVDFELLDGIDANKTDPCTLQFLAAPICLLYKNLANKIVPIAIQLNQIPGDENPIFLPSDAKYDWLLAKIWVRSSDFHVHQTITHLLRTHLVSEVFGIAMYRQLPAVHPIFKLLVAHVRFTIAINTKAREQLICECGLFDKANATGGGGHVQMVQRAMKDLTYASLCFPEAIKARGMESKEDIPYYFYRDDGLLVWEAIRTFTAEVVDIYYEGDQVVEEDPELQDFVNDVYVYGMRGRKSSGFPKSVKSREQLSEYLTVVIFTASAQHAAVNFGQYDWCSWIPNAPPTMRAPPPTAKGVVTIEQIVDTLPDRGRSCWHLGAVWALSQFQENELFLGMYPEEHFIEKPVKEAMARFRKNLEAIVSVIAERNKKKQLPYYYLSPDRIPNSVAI

[2] = target: T2, Polyunsaturated fatty acid 5-lipoxygenase (Homo sapiens) (UniProt P09917); experiment: Inhibition of 5-LO in A23187-stimulated human HEK293 cells assessed as reduction in 5-LO product level at 1 uM preincubated for 5 mins followed by A23187, arachidonic acid addition and measured after 15 mins by RP-HPLC analysis relative to control; assay type: cell-based
T2 sequence (whole entry): T1 sequence (P09917 whole entry)

Row | Structure (SMILES) | IC50 [1] [µM] | inhibition [2]
1 | COc1cc(/C=C/c2nc(CCc3ccccc3)no2)cc(OC)c1O | 0.27 | Active
2 | CCOC(=O)/C=C/c1cc(OC)c(O)c(OC)c1 | – | inactive
3 | COc1cc(/C=C/C(=O)OCCCc2ccccc2)cc(OC)c1O | 0.34 | Active
4 | CCCOC(=O)/C=C/c1cc(OC)c(O)c(OC)c1 | 0.71 | Active
5 | CC(c1cc2ccccc2s1)N(O)C(N)=O (stereo not given) | – | Active
6 | COc1cc(/C=C/C(=O)OCCc2cccc(C(F)(F)F)c2)cc(OC)c1O | 0.2 | Active
7 | C#CCOC(=O)/C=C/c1cc(OC)c(O)c(OC)c1 | – | Active
8 | COc1cc(/C=C/C(=O)OCCc2ccc(C)cc2)cc(OC)c1O | – | Active
9 | COc1cc(/C=C/COCCCc2ccccc2)cc(OC)c1O | 0.56 | Active
10 | COc1ccccc1CCOC(=O)/C=C/c1cc(OC)c(O)c(OC)c1 | 0.25 | Active
11 | COc1cc(/C=C/C(=O)OCCc2ccccc2)cc(OC)c1O | – | Active
12 | COc1cc(/C=C/C(=O)OCCc2ccccc2C(F)(F)F)cc(OC)c1O | 0.35 | Active
13 | COc1cc(/C=C/C(=O)OC(C)C)cc(OC)c1O | – | inactive
14 | COc1cccc(/C=C/C(=O)OCCc2ccccc2)c1OC | – | inactive
15 | COc1cc(/C=C/COCc2ccccc2)cc(OC)c1O | 1.1 | Active
16 | COc1cc(/C=C/C(=O)OCCc2ccccc2F)cc(OC)c1O | 0.24 | Active
17 | COc1cc(/C=C/C(=O)OCCC2CCCCC2)cc(OC)c1O | – | Active
18 | COc1cc(/C=C/C(=O)OCCc2ccccc2)cc(OC)c1OC | – | inactive

Row | Structure (SMILES) | IC50 [1] [µM] | inhibition [2]
19 | COc1cc(/C=C/c2nc(Cc3ccccc3)no2)cc(OC)c1O | 0.3 | Active
20 | COc1cc(CCC(=O)OCCc2ccccc2)cc(OC)c1O | 0.59 | Active
21 | COc1cc(/C=C/C(=O)NCCc2ccccc2)cc(OC)c1O | 0.96 | inactive
22 | COc1cc(/C=C/C(=O)OCCc2cccc(C)c2)cc(OC)c1O | 0.2 | Active
23 | COc1cccc(CCOC(=O)/C=C/c2cc(OC)c(O)c(OC)c2)c1 | 0.21 | Active
24 | COc1cc(/C=C/C(=O)OCCc2cccc(F)c2)cc(OC)c1O | 0.23 | Active
25 | COc1ccc(OC)c(/C=C/C(=O)OCCc2ccccc2)c1 | – | inactive
26 | COc1cc(/C=C/C(=O)CCc2ccccc2)cc(OC)c1O | – | Active
27 | COc1ccc(CCOC(=O)/C=C/c2cc(OC)c(O)c(OC)c2)cc1 | – | Active
28 | COc1cc(/C=C/C(=O)OCCc2ccccc2)cc(OC)c1OC(C)=O | 0.27 | Active
29 | COc1cc(CCC(=O)CCc2ccccc2)cc(OC)c1O | 0.42 | Active
30 | COc1cc(C(=O)OCCc2ccccc2)cc(OC)c1O | – | inactive
31 | COc1cc(CC(=O)OCCc2ccccc2)cc(OC)c1O | 1.1 | inactive
32 | COc1cc(/C=C/C(=O)OCCc2ccc(C(F)(F)F)cc2)cc(OC)c1O | – | Active
33 | COc1cc(/C=C/C(=O)OCCc2ccccc2)cc(OC)c1 | – | inactive
34 | COc1cc(/C=C/C(=O)OCCc2ccccc2C)cc(OC)c1O | 0.24 | Active
35 | COC(=O)/C=C/c1cc(OC)c(O)c(OC)c1 | – | inactive
36 | COc1cc(/C=C/C(=O)OCCc2ccc(F)cc2)cc(OC)c1O | – | Active
